Data taken from PubChem BioAssay AID849 (SRMLSC, 2007).
Activity calls are given as the source filed them. No rule for the calls is given here.

system: Saccharomyces cerevisiae lifespan shortening, growth inhibition; experiment: yeast lifespan shortening compounds, dose response (AID 849);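 also: yeast growth read as optical density after two days at 30 degrees C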

Structure (SMILES)	IC50
Clc1ccc(N=c2ssnc2Cl)cc1	25.6 µM
COc1cc(/C=C2\C(=O)ON=C2c2ccccc2)cc(OC)c1OC	18.5 µM
Cc1cc(C)c2c(=O)n(CC(=O)N3CCC(Cc4ccccc4)CC3)sc2n1	> 100 µM (inactive)
COc1cc2c(cc1OC)CN(C(=O)CSc1nnc3scc(-c4ccccc4)n13)CC2	> 100 µM (inactive)
CC(C)(C)c1nnc(N/N=C/c2cc(Br)ccc2O)n(N)c1=O	50 µM
Oc1c(C(Nc2nc3ccccc3s2)c2ccco2)ccc2cccnc12 (centres undefined)	> 100 µM (inactive)
Cc1ccc(O)c(-c2cc(-c3ccccc3C)[nH]n2)c1	24.3 µM
Cc1cc(N2CCN(C(=O)c3ccco3)CC2)n2ncc(-c3ccccc3)c2n1	> 100 µM (inactive)
Cc1ccc(-n2c(Cl)c(Cl)nc(Cl)c2=O)cc1	14.6 µM
O=C(O)c1cc2c(s1)-c1ccccc1OC2	42.2 µM
CCOC(=O)C(=NCCCN(C)C)NNc1ccc(Br)cc1	11.1 µM
O=C1C(=O)c2ccccc2-c2ccccc21	7.79 µM
CCOC(=O)CNC(=O)CSc1nnc(-c2ccco2)n1Cc1ccco1	> 100 µM (inactive)
c1cn2cc(-c3ccc4c(c3)OCO4)nc2s1	> 100 µM (inactive)
CC(C)CC(=O)/C(=C\c1ccc(Cl)cc1Cl)n1cncn1	15.8 µM
CC1(CCc2ccccc2)NC(=S)N(c2ccc(Cl)cc2)N1 (centres undefined)	42 µM
CC1(C)CC(=NOC(=O)c2ccccc2)CC(C)(C)N1O	8.22 µM

Structure (SMILES)	IC50
NC(=O)c1ccc(N=Cc2ccc([N+](=O)[O-])s2)cc1	7.91 µM
CN(c1ccc(O)cc1)c1nc(-c2ccccc2)cs1	> 100 µM (inactive)
COc1ccc(-c2nnc3sc(C(C)N4C(=O)c5ccccc5C4=O)nn23)cc1 (centres undefined)	> 100 µM (inactive)
O=C(O)c1cc2c(ccc3ccccc32)oc1=O	11.9 µM
Cc1ccc(C(=O)O/N=C/c2c(N3CCOCC3)n(C)c3ccccc23)cc1	> 100 µM (inactive)
COc1ccccc1OCC(=O)n1cc(C(=O)c2cc(Cl)cc(Cl)c2O)cn1	5.95 µM
CC(=O)/C(=N\Nc1ccc(C)cc1)N1CCOCC1	11.1 µM
CCOC(=O)/C(=N\Nc1ccccc1Cl)N1CCN(Cc2ccccc2)CC1	17.9 µM
O=C(/C=C/c1ccccc1)c1cc(Br)ccc(=O)c1O	10.1 µM
Cc1cccc(OCCN2CSC(=S)N(C)C2)c1	13 µM
O=C(Nc1cc(C(F)(F)F)ccc1Cl)C(Sc1cccc[n+]1[O-])c1ccccc1 (centres undefined)	4.89 µM
CCCCCCCCCCCCCCCC[n+]1cccc2ccccc21	0.783 µM
CC1CCCCN1S(=O)(=O)c1coc(C(N)=O)c1 (centres undefined)	> 100 µM (inactive)
COc1ccc(OCCNC2CCCC2)cc1	> 100 µM (inactive)
O=C(OCn1ncc(Br)c(Br)c1=O)c1ccccc1Cl	> 100 µM (inactive)
COc1ccc(-c2[nH]ncc2-c2ccc(Cl)cc2)c(O)c1	> 100 µM (inactive)
O=C(ONC1=NCCCCC1)c1ccc(Cl)cc1	6.15 µM
